Results: ChEMBL document CHEMBL1201861, “Genomics of Drug Sensitity in Cancer screening data, Wellcome Trust Sanger Institute”

How the values were obtained:
Assay type in all cases: functional, cell-based
NCI-H2291 = test: cells; settings: Homo sapiens
Description: SANGER: Inhibition of human NCI-H2291 cell growth in a cell viability assay.

ECC10 = test: cells; settings: Homo sapiens;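 further: growth inhibition of ECC10 cells, read out by a cell viability assay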
Description: SANGER: Inhibition of human ECC10 cell growth in a cell viability assay.

A549 = test: cells; settings: Homo sapiens;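 further: growth inhibition of A549 cells, read out with a cell viability assay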
Description: SANGER: Inhibition of human A549 cell growth in a cell viability assay.

CHP-134 = test: SANGER: Inhibition of human CHP-134 cell growth in a cell viability assay.
YH-13 = test: cells; settings: Homo sapiens;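 further: cell viability readout of growth suppression in the human YH-13 cell line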
Description: SANGER: Inhibition of human YH-13 cell growth in a cell viability assay.

D-423MG = test: cells; settings: Homo sapiens
Description: SANGER: Inhibition of human D-423MG cell growth in a cell viability assay.

KNS-62 = test: cells; settings: Homo sapiens;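 further: inhibition of cell growth, read out with a cell viability assay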
Description: SANGER: Inhibition of human KNS-62 cell growth in a cell viability assay.

TGBC11TKB = test: cells; settings: Homo sapiens;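 further: growth inhibition of human TGBC11TKB cells, measured by a cell viability assay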
Description: SANGER: Inhibition of human TGBC11TKB cell growth in a cell viability assay.

D-566MG = test: cells; settings: Homo sapiens
BT-549 = test: cells; settings: Homo sapiens
Description: SANGER: Inhibition of human BT-549 cell growth in a cell viability assay.

NCI-H2029 = test: cells; settings: Homo sapiens;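 further: Read-out is a viability assay on the cultured cells, and IC50 is the concentration that suppresses cell growth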
Description: SANGER: Inhibition of human NCI-H2029 cell growth in a cell viability assay.

H9 = test: cells; settings: Homo sapiens
Description: SANGER: Inhibition of human H9 cell growth in a cell viability assay.

H-EMC-SS = test: cells; settings: Homo sapiens
Description: SANGER: Inhibition of human H-EMC-SS cell growth in a cell viability assay.

ZR-75-30 = test: cells; settings: Homo sapiens;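 further: growth inhibition of ZR-75-30 cells, measured with a cell viability readout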
Description: SANGER: Inhibition of human ZR-75-30 cell growth in a cell viability assay.

SW900 = test: cells; settings: Homo sapiens;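 further: IC50 is the concentration that inhibits SW900 cell growth, measured by a cell viability assay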
Description: SANGER: Inhibition of human SW900 cell growth in a cell viability assay.

OC-314 = test: cells; settings: Homo sapiens
Description: SANGER: Inhibition of human OC-314 cell growth in a cell viability assay.

RH-18 = test: cells; settings: Homo sapiens, Rh18;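 further: growth inhibition of human RH-18 cells, read out with a cell viability assay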
Description: SANGER: Inhibition of human RH-18 cell growth in a cell viability assay.

CFPAC-1 = test: cells; settings: Homo sapiens;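 further: cell viability readout used to gauge suppression of CFPAC-1 cell proliferation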
Description: SANGER: Inhibition of human CFPAC-1 cell growth in a cell viability assay.

NCI-H1048 = test: cells; settings: Homo sapiens;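 further: growth inhibition of human NCI-H1048 cells, read out with a cell viability assay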
Description: SANGER: Inhibition of human NCI-H1048 cell growth in a cell viability assay.

SW 1116 = test: cells; settings: Homo sapiens;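 further: growth inhibition of SW1116 cells, read out with a cell viability assay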
Description: SANGER: Inhibition of human SW1116 cell growth in a cell viability assay.

Caov-3 cell line = test: cells; settings: Homo sapiens;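 further: cell growth inhibition read out by a viability assay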
Description: SANGER: Inhibition of human Caov-3 cell growth in a cell viability assay.

SNG-M = test: cells; settings: Homo sapiens
Description: SANGER: Inhibition of human SNG-M cell growth in a cell viability assay.

SNU-475 = test: cells; settings: Homo sapiens
Description: SANGER: Inhibition of human SNU-475 cell growth in a cell viability assay.

EW-7 = test: SANGER: Inhibition of human EW-7 cell growth in a cell viability assay.
NCI-H2227 = test: cells; settings: Homo sapiens;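 further: growth inhibition of the human cell line, read out with a cell viability assay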
Description: SANGER: Inhibition of human NCI-H2227 cell growth in a cell viability assay.

TT = test: cells; settings: Homo sapiens
Description: SANGER: Inhibition of human TT cell growth in a cell viability assay.

MFE-296 = test: SANGER: Inhibition of human MFE-296 cell growth in a cell viability assay.
EFE-184 = test: cells; settings: Homo sapiens
Description: SANGER: Inhibition of human EFE-184 cell growth in a cell viability assay.

CCF-STTG1 = test: cells; settings: Homo sapiens;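 further: growth inhibition of human CCF-STTG1 cells, determined with a cell viability read-out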
Description: SANGER: Inhibition of human CCF-STTG1 cell growth in a cell viability assay.

NCI-H1618 = test: cells; settings: Homo sapiens;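 further: growth inhibition of human NCI-H1618 cells, measured by a cell viability assay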
Description: SANGER: Inhibition of human NCI-H1618 cell growth in a cell viability assay.

PLC-PRF-5 = test: cells; settings: Homo sapiens;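 further: growth inhibition of human PLC-PRF-5 cells, read out with a viability assay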
Description: SANGER: Inhibition of human PLC-PRF-5 cell growth in a cell viability assay.

SK-CO-1 = test: cells; settings: Homo sapiens;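 further: growth inhibition of SK-CO-1 cells, determined by a viability readout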
Description: SANGER: Inhibition of human SK-CO-1 cell growth in a cell viability assay.

MES-SA = test: cells; settings: Homo sapiens;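 further: growth inhibition of human MES-SA cells, read out with a cell viability assay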
Description: SANGER: Inhibition of human MES-SA cell growth in a cell viability assay.

KP-N-RT-BM-1 = test: SANGER: Inhibition of human KP-N-RT-BM-1 cell growth in a cell viability assay.
NCI-H2107 = test: SANGER: Inhibition of human NCI-H2107 cell growth in a cell viability assay.
CP67-MEL = test: SANGER: Inhibition of human CP67-MEL cell growth in a cell viability assay.
TC-YIK = test: SANGER: Inhibition of human TC-YIK cell growth in a cell viability assay.
ECC12 = test: cells; settings: Homo sapiens
Description: SANGER: Inhibition of human ECC12 cell growth in a cell viability assay.

SMILES | IC50 (NCI-H2291) [µM] | IC50 (ECC10) [µM] | IC50 (A549) [µM] | IC50 (CHP-134) [µM] | IC50 (YH-13) [µM] | IC50 (D-423MG) [µM] | IC50 (KNS-62) [µM] | IC50 (TGBC11TKB) [µM] | IC50 (D-566MG) [µM] | IC50 (BT-549) [µM] | IC50 (NCI-H2029) [µM] | IC50 (H9) [µM] | IC50 (H-EMC-SS) [µM] | IC50 (ZR-75-30) [µM] | IC50 (SW900) [µM] | IC50 (OC-314) [µM] | IC50 (RH-18) [µM] | IC50 (CFPAC-1) [µM] | IC50 (NCI-H1048) [µM] | IC50 (SW 1116) [µM] | further results
Cc1ccc(-n2nc(C(C)(C)C)cc2NC(=O)Nc2ccc(OCCN3CCOCC3)c3ccccc23)cc1 [DORAMAPIMOD] | > 10 | > 10 | > 10 | > 10 | > 10 | > 10 | > 10 | > 10 | > 10 | > 10 | > 10 | > 10 | > 10 | > 10 | > 10 | > 10 | > 10 | > 10 | > 10 | > 10 | –
C/C(=C\c1csc(C)n1)[C@@H]1C[C@@H]2O[C@]2(C)CCC[C@H](C)[C@H](O)[C@@H](C)C(=O)C(C)(C)[C@@H](O)CC(=O)O1 [PATUPILONE] | – | – | – | – | – | – | – | – | – | – | – | – | – | – | – | – | – | – | – | – | IC50 (Caov-3 cell line): 0.0139 µM; IC50 (SNG-M): 0.000571 µM; IC50 (SNU-475): > 0.032 µM; IC50 (EW-7): 0.00225 µM; IC50 (NCI-H2227): > 0.032 µM; IC50 (TT): > 0.032 µM; IC50 (MFE-296): 0.00268 µM; IC50 (EFE-184): > 0.032 µM; IC50 (CCF-STTG1): 0.00583 µM; IC50 (NCI-H1618): 0.00762 µM; IC50 (PLC-PRF-5): > 0.032 µM; IC50 (SK-CO-1): 0.00913 µM; IC50 (MES-SA): 0.00198 µM
CS(=O)(=O)N1CCN(Cc2cc3nc(-c4cccc5[nH]ncc45)nc(N4CCOCC4)c3s2)CC1 [PICTILISIB] | > 4 | – | 1.4 | > 4 | 0.304 | 1.1 | 3.92 | > 4 | 1.63 | > 4 | > 4 | – | > 4 | > 4 | > 4 | > 4 | > 4 | > 4 | 2.11 | > 4 | –
C=CC(=O)N1CCCC(Nc2nc(Nc3ccc(N(C)C(=O)CC)cc3)nc3[nH]cnc23)C1 (centres undefined) | – | – | – | – | – | – | – | – | – | – | – | – | – | – | – | – | – | – | – | – | IC50 (KP-N-RT-BM-1): > 10.2 µM; IC50 (NCI-H2107): > 10.2 µM; IC50 (CP67-MEL): > 10.2 µM
CCCCCCCCCCCC1=C(O)C(=O)C=C(O)C1=O [EMBELIN] | – | – | – | – | – | – | – | – | – | – | – | – | – | – | – | – | – | – | – | – | IC50 (Caov-3 cell line): > 32 µM; IC50 (SNG-M): 7.05 µM; IC50 (SNU-475): > 32 µM; IC50 (EW-7): 23.2 µM; IC50 (NCI-H2227): > 32 µM; IC50 (TT): 23.5 µM; IC50 (MFE-296): 14.4 µM; IC50 (EFE-184): 26.1 µM; IC50 (CCF-STTG1): 14 µM; IC50 (NCI-H1618): > 32 µM; IC50 (PLC-PRF-5): 6.93 µM; IC50 (SK-CO-1): 13.6 µM; IC50 (MES-SA): 16.5 µM
CC(C)C[C@H](NC(=O)[C@H](Cc1ccccc1)NC(=O)c1cnccn1)B(O)O [BORTEZOMIB] | – | – | – | – | – | – | – | – | – | – | – | – | – | – | – | – | – | – | – | – | IC50 (NCI-H2227): > 0.02 µM; IC50 (TC-YIK): > 0.02 µM; IC50 (ECC12): 0.00137 µM
NC1(c2ccc(-c3nc4ccn5c(=O)[nH]nc5c4cc3-c3ccccc3)cc2)CCC1 [MK-2206] | > 4 | 3.94 | > 4 | > 4 | 2.46 | 2.41 | 3.63 | > 4 | > 4 | > 4 | > 4 | 0.389 | 0.499 | > 4 | – | 2.15 | > 4 | > 4 | 2.97 | > 4 | –
COc1ccc(-c2cc3nccn3c(Nc3ncccc3C(N)=O)n2)cc1OC | – | – | – | – | – | – | – | – | – | – | – | – | – | – | – | – | – | – | – | – | IC50 (Caov-3 cell line): > 8 µM; IC50 (SNG-M): 2.26 µM; IC50 (SNU-475): > 8 µM; IC50 (EW-7): 1.98 µM; IC50 (NCI-H2227): > 8 µM; IC50 (TT): > 8 µM; IC50 (MFE-296): > 8 µM; IC50 (EFE-184): > 8 µM; IC50 (CCF-STTG1): 7.24 µM; IC50 (NCI-H1618): > 8 µM; IC50 (PLC-PRF-5): > 8 µM; IC50 (SK-CO-1): > 8 µM; IC50 (MES-SA): 0.96 µM
CC1(C)CCC(c2ccc(Cl)cc2)=C(CN2CCN(c3ccc(C(=O)NS(=O)(=O)c4ccc(N[C@H](CCN5CCOCC5)CSc5ccccc5)c(S(=O)(=O)C(F)(F)F)c4)cc3)CC2)C1 [NAVITOCLAX] | > 2 | 0.0379 | > 2 | 0.163 | > 2 | > 2 | > 2 | > 2 | > 2 | > 2 | > 2 | > 2 | > 2 | > 2 | > 2 | > 2 | 0.0605 | > 2 | 0.51 | > 2 | –
Cc1cc(N2CCOCC2)cc2[nH]c(-c3c(NC[C@@H](O)c4cccc(Cl)c4)cc[nH]c3=O)nc12 | – | – | – | – | – | – | – | – | – | – | – | – | – | – | – | – | – | – | – | – | IC50 (KP-N-RT-BM-1): 1.44 µM; IC50 (NCI-H2107): > 5.12 µM; IC50 (CP67-MEL): 0.898 µM
NC(=O)Nc1cc(-c2cccc(F)c2)sc1C(=O)N[C@H]1CCCNC1 [AZD-7762] | > 2 | > 2 | 1.49 | – | 0.157 | 0.331 | 0.566 | 0.111 | 0.147 | 1.27 | > 2 | 0.122 | 0.284 | > 2 | 1.12 | 0.0781 | > 2 | 0.723 | 0.919 | > 2 | –
